# Measured values reported in ChEMBL document CHEMBL1221367, “A new series of macrolide derivatives with 4''-O-saccharide substituents” (2010).
# Legend:
# Assay type in all cases: functional
# [1] = test system: Staphylococcus aureus; experiment: Antibacterial activity against methicillin-susceptible Staphylococcus aureus ATCC 29213 by the broth microdilution method
# [2] = test system: Staphylococcus aureus; experiment: Antibacterial activity against methicillin-resistant Staphylococcus aureus BK2464 by the broth microdilution method
# [3] = test system: Staphylococcus epidermidis; experiment: Antibacterial activity against methicillin-resistant Staphylococcus epidermidis MRSE-1 by the broth microdilution method
# [4] = test system: Streptococcus pneumoniae; experiment: Antibacterial activity against erythromycin-resistant Streptococcus pneumoniae ERSP-2 expressing ermB and mef by the broth microdilution method
# [5] = test system: Streptococcus pyogenes; experiment: Antibacterial activity against erythromycin-resistant Streptococcus pyogenes 8902 expressing ermB by the broth microdilution method
# [6] = test system: Streptococcus pyogenes; experiment: Antibacterial activity against Streptococcus pyogenes ERSPy-1 expressing mef by the broth microdilution method
# [7] = test system: Streptococcus pyogenes; experiment: Ratio of compound MIC to clarithromycin MIC for Streptococcus pyogenes ERSPy-1 expressing mef
# [8] = test system: Streptococcus pyogenes; experiment: Ratio of compound MIC to clarithromycin MIC for erythromycin-resistant Streptococcus pyogenes 8902 expressing ermB
# [9] = test system: Streptococcus pneumoniae; experiment: Ratio of compound MIC to clarithromycin MIC for erythromycin-resistant Streptococcus pneumoniae ERSP-2 expressing ermB and mef
smiles,measurement,setting,value
CC[C@H]1OC(=O)[C@H](C)[C@@H](O[C@H]2C[C@@](C)(OC)[C@@H](O[C@@H]3O[C@H](CO)[C@@H](O)[C@H](O)[C@H]3O)[C@H](C)O2)[C@H](C)[C@@H](O[C@@H]2O[C@H](C)C[C@H](N(C)C)[C@H]2O)[C@](C)(OC)C[C@@H](C)C(=O)[C@H](C)[C@@H](O)[C@]1(C)O,MIC,[1],> 16 µg/mL
same,MIC,[2],> 16 µg/mL
same,MIC,[3],16 µg/mL
same,MIC,[4],16 µg/mL
same,MIC,[5],16 µg/mL
same,MIC,[6],16 µg/mL
CC[C@H]1OC(=O)[C@H](C)[C@@H](O[C@H]2C[C@@](C)(OC)[C@@H](O[C@@H]3O[C@H](CO)[C@@H](O)[C@H](O)[C@H]3OC(C)=O)[C@H](C)O2)[C@H](C)[C@@H](O[C@@H]2O[C@H](C)C[C@H](N(C)C)[C@H]2O)[C@](C)(OC)C[C@@H](C)C(=O)[C@H](C)[C@@H](O)[C@]1(C)O,MIC,[1],> 16 µg/mL
same,MIC,[2],> 16 µg/mL
same,MIC,[3],> 16 µg/mL
same,MIC,[4],16 µg/mL
same,MIC,[5],> 16 µg/mL
same,MIC,[6],16 µg/mL
CC[C@H]1OC(=O)[C@H](C)[C@@H](O[C@H]2C[C@@](C)(OC)[C@@H](O[C@@H]3O[C@H](COC(=O)c4ccccc4)[C@@H](OC(=O)c4ccccc4)[C@H](OC(C)=O)[C@H]3OC(C)=O)[C@H](C)O2)[C@H](C)[C@@H](O[C@@H]2O[C@H](C)C[C@H](N(C)C)[C@H]2O)[C@](C)(OC)C[C@@H](C)C(=O)[C@H](C)[C@@H](O)[C@]1(C)O,MIC,[1],> 16 µg/mL
same,MIC,[2],> 16 µg/mL
same,MIC,[3],16 µg/mL
same,MIC,[4],16 µg/mL
same,MIC,[5],16 µg/mL
same,MIC,[6],8 µg/mL
CC[C@H]1OC(=O)[C@H](C)[C@@H](O[C@H]2C[C@@](C)(OC)[C@@H](O[C@@H]3O[C@H](COC(=O)c4ccccc4)[C@@H](O)[C@H](O)[C@H]3OC(C)=O)[C@H](C)O2)[C@H](C)[C@@H](O[C@@H]2O[C@H](C)C[C@H](N(C)C)[C@H]2O)[C@](C)(OC)C[C@@H](C)C(=O)[C@H](C)[C@@H](O)[C@]1(C)O,MIC,[1],16 µg/mL
same,MIC,[2],> 16 µg/mL
same,MIC,[3],16 µg/mL
same,MIC,[4],8 µg/mL
same,MIC,[5],16 µg/mL
same,MIC,[6],8 µg/mL
CC[C@H]1OC(=O)[C@H](C)[C@@H](O[C@H]2C[C@@](C)(OC)[C@@H](O[C@H]3O[C@H](COC(C)=O)[C@@H](OC(=O)c4ccccc4)[C@H](OC(C)=O)[C@H]3OC(C)=O)[C@H](C)O2)[C@H](C)[C@@H](O[C@@H]2O[C@H](C)C[C@H](N(C)C)[C@H]2O)[C@](C)(OC)C[C@@H](C)C(=O)[C@H](C)[C@@H](O)[C@]1(C)O,MIC,[1],16 µg/mL
same,MIC,[2],> 16 µg/mL
same,MIC,[3],16 µg/mL
same,MIC,[4],16 µg/mL
same,MIC,[5],16 µg/mL
same,MIC,[6],1 µg/mL
CC[C@H]1OC(=O)[C@H](C)[C@@H](O[C@H]2C[C@@](C)(OC)[C@@H](O[C@@H]3O[C@H](CO)[C@@H](O[C@H]4O[C@@H](CO)[C@H](O)[C@@H](O)[C@@H]4O)[C@H](O)[C@H]3O)[C@H](C)O2)[C@H](C)[C@@H](O[C@@H]2O[C@H](C)C[C@H](N(C)C)[C@H]2O)[C@](C)(OC)C[C@@H](C)C(=O)[C@H](C)[C@@H](O)[C@]1(C)O,MIC,[1],> 16 µg/mL
same,MIC,[2],> 16 µg/mL
same,MIC,[3],> 16 µg/mL
same,MIC,[4],16 µg/mL
same,MIC,[5],> 16 µg/mL
same,MIC,[6],> 16 µg/mL
CC[C@H]1OC(=O)[C@H](C)[C@@H](O[C@H]2C[C@@](C)(OC)[C@@H](O[C@@H]3O[C@H](CO)[C@@H](O)[C@H](O)[C@H]3O)[C@H](C)O2)[C@H](C)[C@@H](O[C@@H]2O[C@H](C)C[C@H](N(C)C)[C@H]2O)[C@](C)(OC)C[C@@H](C)C(=O)[C@H](C)[C@H]2N(CCCCn3cnc4cccnc43)C(=O)O[C@]12C,MIC,[1],> 16 µg/mL
same,MIC,[2],> 16 µg/mL
same,MIC,[3],> 16 µg/mL
same,MIC,[4],8 µg/mL
same,MIC,[5],16 µg/mL
same,MIC,[6],16 µg/mL
CC[C@H]1OC(=O)[C@H](C)[C@@H](O[C@H]2C[C@@](C)(OC)[C@@H](O[C@@H]3O[C@@H]4COC(c5ccccc5)O[C@H]4[C@H](O)[C@H]3O)[C@H](C)O2)[C@H](C)[C@@H](O[C@@H]2O[C@H](C)C[C@H](N(C)C)[C@H]2O)[C@](C)(OC)C[C@@H](C)C(=O)[C@H](C)[C@H]2N(CCCCn3cnc4cccnc43)C(=O)O[C@]12C (stereo not given in full),MIC,[1],4 µg/mL
same,MIC,[2],> 16 µg/mL
same,MIC,[3],4 µg/mL
same,MIC,[4],2 µg/mL
same,MIC,[5],4 µg/mL
same,MIC,[6],0.5 µg/mL
same,Ratio,[7],4
same,Ratio,[8],8
same,Ratio,[9],8
CC[C@H]1OC(=O)[C@H](C)[C@@H](O[C@H]2C[C@@](C)(OC)[C@@H](O[C@@H]3O[C@H](CO)[C@@H](O)[C@H](O)[C@H]3O)[C@H](C)O2)[C@H](C)[C@@H](O[C@@H]2O[C@H](C)C[C@H](N(C)C)[C@H]2O)[C@](C)(OC)C[C@@H](C)C(=O)[C@H](C)[C@H]2N(CCCCn3cnc4ncccc43)C(=O)O[C@]12C,MIC,[1],> 16 µg/mL
same,MIC,[2],> 16 µg/mL
same,MIC,[3],> 16 µg/mL
same,MIC,[4],8 µg/mL
same,MIC,[5],16 µg/mL
same,MIC,[6],8 µg/mL
CC[C@H]1OC(=O)[C@H](C)[C@@H](O[C@H]2C[C@@](C)(OC)[C@@H](O[C@@H]3O[C@@H]4COC(c5ccccc5)O[C@H]4[C@H](O)[C@H]3O)[C@H](C)O2)[C@H](C)[C@@H](O[C@@H]2O[C@H](C)C[C@H](N(C)C)[C@H]2O)[C@](C)(OC)C[C@@H](C)C(=O)[C@H](C)[C@H]2N(CCCCn3cnc4ncccc43)C(=O)O[C@]12C (stereo not given in full),MIC,[1],4 µg/mL
same,MIC,[2],> 16 µg/mL
same,MIC,[3],4 µg/mL
same,MIC,[4],1 µg/mL
same,MIC,[5],8 µg/mL
same,MIC,[6],2 µg/mL
CC[C@H]1OC(=O)[C@H](C)[C@@H](O[C@H]2C[C@@](C)(OC)[C@@H](O)[C@H](C)O2)[C@H](C)[C@@H](O[C@@H]2O[C@H](C)C[C@H](N(C)C)[C@H]2O)[C@](C)(OC)C[C@@H](C)C(=O)[C@H](C)[C@@H](O)[C@]1(C)O [CLARITHROMYCIN],MIC,[1],0.25 µg/mL
same,MIC,[2],> 32 µg/mL
same,MIC,[3],16 µg/mL
same,MIC,[4],16 µg/mL
same,MIC,[5],32 µg/mL
same,MIC,[6],2 µg/mL
CC[C@H]1OC(=O)[C@H](C)C(=O)[C@H](C)[C@@H](O[C@@H]2O[C@H](C)C[C@H](N(C)C)[C@H]2O)[C@](C)(OC)C[C@@H](C)C(=O)[C@H](C)[C@H]2N(CCCCn3cnc(-c4cccnc4)c3)C(=O)O[C@]12C [TELITHROMYCIN],MIC,[1],0.125 µg/mL
same,MIC,[2],> 32 µg/mL
same,MIC,[3],0.125 µg/mL
same,MIC,[4],0.125 µg/mL
same,MIC,[5],0.25 µg/mL
same,MIC,[6],0.25 µg/mL
